{
  "source": "ChEMBL document CHEMBL3886634",
  "about": "“Substituted 3-haloallylamine inhibitors of ASSAO and uses thereof” (2016)",
  "key": {"[1]": {"target": "T1, Amine oxidase [flavin-containing] B (Homo sapiens, UniProt P27338)", "T1 sequence (P27338 whole entry)": "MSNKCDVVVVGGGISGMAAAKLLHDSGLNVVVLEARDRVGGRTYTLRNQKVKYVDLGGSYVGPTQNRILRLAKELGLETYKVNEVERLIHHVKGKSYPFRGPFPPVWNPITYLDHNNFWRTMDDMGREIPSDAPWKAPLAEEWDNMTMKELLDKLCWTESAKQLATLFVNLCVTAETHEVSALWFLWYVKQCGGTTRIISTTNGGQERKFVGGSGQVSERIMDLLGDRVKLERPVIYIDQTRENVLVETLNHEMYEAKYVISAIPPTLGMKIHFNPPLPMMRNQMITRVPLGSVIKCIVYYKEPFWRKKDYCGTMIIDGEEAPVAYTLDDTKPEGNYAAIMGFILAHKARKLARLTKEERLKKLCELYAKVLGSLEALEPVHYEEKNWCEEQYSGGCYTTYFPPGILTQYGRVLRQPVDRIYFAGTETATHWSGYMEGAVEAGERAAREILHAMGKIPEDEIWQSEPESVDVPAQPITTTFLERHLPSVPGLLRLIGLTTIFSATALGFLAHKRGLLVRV"}, "[2]": {"target": "T2, Diamine oxidase [copper-containing] (Homo sapiens, UniProt P19801)", "T2 sequence (P19801 whole entry)": "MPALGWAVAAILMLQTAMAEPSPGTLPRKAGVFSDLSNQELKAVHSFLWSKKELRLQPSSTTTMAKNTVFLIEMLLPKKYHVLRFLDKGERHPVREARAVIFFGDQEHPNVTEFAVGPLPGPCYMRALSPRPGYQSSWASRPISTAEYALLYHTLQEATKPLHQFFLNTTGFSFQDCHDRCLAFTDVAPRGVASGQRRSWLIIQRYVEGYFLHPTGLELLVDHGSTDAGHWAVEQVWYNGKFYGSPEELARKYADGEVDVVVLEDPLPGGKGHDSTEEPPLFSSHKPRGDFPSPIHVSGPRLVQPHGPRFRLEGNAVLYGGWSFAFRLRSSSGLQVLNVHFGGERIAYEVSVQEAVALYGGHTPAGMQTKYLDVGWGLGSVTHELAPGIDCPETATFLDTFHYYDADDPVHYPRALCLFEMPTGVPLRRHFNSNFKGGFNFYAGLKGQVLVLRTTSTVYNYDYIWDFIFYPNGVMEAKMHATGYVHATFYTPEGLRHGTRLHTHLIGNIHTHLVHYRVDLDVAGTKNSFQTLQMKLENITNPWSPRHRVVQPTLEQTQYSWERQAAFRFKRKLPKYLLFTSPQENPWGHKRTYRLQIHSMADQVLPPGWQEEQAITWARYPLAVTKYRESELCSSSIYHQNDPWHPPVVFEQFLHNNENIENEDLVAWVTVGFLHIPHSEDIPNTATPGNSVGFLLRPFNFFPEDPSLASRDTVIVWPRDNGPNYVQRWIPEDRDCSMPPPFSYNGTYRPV", "test": "DAO Inhibition Assay: Recombinant human DAO (2.4 μg/mL) was used as source of DAO enzyme activities."}},
  "note": "pIC50: −log10 of the molar value.",
  "data": [
    {"smiles": "NC/C(=C/F)CCc1ccc(F)cc1", "note": "[MOFEGILINE]", "values": [
      {"measurement": "pIC50", "setting": "[1]", "result": 8.30},
      {"measurement": "pIC50", "setting": "[2]", "result": "< 5.00"}
    ]}
  ]
}
